Measured values reported in patent US20250332173A1, “COMPOUNDS AND METHODS FOR MODULATING NUCLEIC ACID SPLICING” (REMIX THERAPEUTICS INC., priority 2021, published 2025).
Where two headings read alike, the source gives them in different places.

Tests used:
HTT mRNA = assay: RT-qPCR splicing assay, HTT canonical junction (CJ) and alternative junction (AJ) mRNA; type: cell-based, human; conditions: Homo sapiens; for AC50: increase in HTT alternative junction (AJ) mRNA, read-out: HTT AJ AC50
Procedure, shortened: (§1)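 Splicing switches were read by TaqMan RT-qPCR on lysates, quantifying exon-exon junctions of the canonical and alternative-exon isoforms. Lysates came from K562 (GAPDH/GUSB reference) or A673 (PPIA reference) cells exposed 24 h to compound in 11 threefold steps from 10 uM, with DMSO ≤0.25%.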

MYB mRNA = assay: RT-qPCR splicing assay, MYB canonical junction (CJ) and alternative junction (AJ) mRNA; type: cell-based, human; conditions: Homo sapiens; for AC50: increase in MYB alternative junction (AJ) mRNA, read-out: MYB AJ AC50
Procedure, shortened: as §1

Target C = assay: RT-qPCR splicing assay panel, Target C canonical junction (CJ) mRNA; type: cell-based, human; conditions: Homo sapiens; Table 5 panel; canonical junction qPCR; compound concentration having 50% response in CJ decrease; read-out: Target C IC50 (decrease in CJ mRNA levels)
Procedure, shortened: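 Exposure: 24 h, 37 °C, 11-point 3-fold dilutions from 10 uM final, DMSO at or below 0.25%, in A673 or K562 cells. Detection: cell-lysate RT-qPCR of canonical junction mRNA relative to GAPDH, GUSB or PPIA.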

[1] = system: K562 (human chronic myelogenous leukemia) cells; assay: Cell Titer Glo 2.0 cell viability assay; type: cell-based; conditions: Homo sapiens, K562, 72 h, K562 cells, 72 hours, Cell Titer Glo 2.0; read-out: K562 GI50
[2] = decrease in HTT canonical junction (CJ) mRNA, RT-qPCR, read-out: HTT CJ IC50
[3] = Table 5 panel, canonical junction qPCR, compound concentration having 50% response in CJ decrease, read-out: HTT IC50 (decrease in CJ mRNA levels)
[4] = Table 5 panel, canonical junction qPCR, compound concentration having 50% response in CJ decrease, read-out: MYB IC50 (decrease in CJ mRNA levels)
[5] = decrease in MYB canonical junction (CJ) mRNA, RT-qPCR, read-out: MYB CJ IC50

SMILES | IC50 (HTT mRNA; [2]) [nM] | AC50 (HTT mRNA; RT-qPCR) [nM] | IC50 (HTT mRNA; [3]) [nM] | IC50 (MYB mRNA; [4]) [nM] | IC50 (MYB mRNA; [5]) [nM] | AC50 (MYB mRNA; RT-qPCR) [nM] | IC50 (Target C) [nM] | GI50 [1] [nM]
Cc1cn2nc(-c3ccc4c(=O)n(C5CCNC(C)(C)C5)ncc4c3)cc(C)c2n1 (stereo not drawn) [Compound 279] | 100 to 1000 | 100 to 1000 | 100 to 1000 | < 100 | 100 to 1000 | < 100 | 100 to 1000 | 1000 to 10000
Cc1cn2nc(-c3ccc4c(=O)n([C@@H]5C[C@H]6CC[C@@H](C5)N6)ncc4c3)cc(C)c2n1 [Compound 280] | 100 to 1000 | 100 to 1000 | 100 to 1000 | 100 to 1000 | 100 to 1000 | 100 to 1000 | 1000 to 10000 | 1000 to 10000
Cc1cn2nc(-c3ccc4c(c3)CCN([C@@H]3CCN[C@H](C)C3)C4=O)cc(C)c2n1 [Compound 281] | 1000 to 10000 | 1000 to 10000 | 1000 to 10000 | 1000 to 10000 | 1000 to 10000 | 1000 to 10000 | 1000 to 10000 | 1000 to 10000
Cc1cn2nc(-c3ccc4c(c3)CCN(C3CCN(C)C3)C4=O)cc(C)c2n1 (stereo not drawn) [Compound 282] | > 10000 | > 10000 | > 10000 | > 10000 | > 10000 | > 10000 | > 10000 | > 10000
Cc1cn2nc(-c3ccc4c(=O)n(C5CCCNCC5)ncc4c3)cc(C)c2n1 (stereo not drawn) [Compound 283] | 100 to 1000 | 100 to 1000 | 100 to 1000 | 100 to 1000 | 100 to 1000 | 100 to 1000 | 100 to 1000 | 100 to 1000
O=c1c2ccc(-c3cn[nH]c3)cc2ncn1C1CCNCC1 [Compound 284] | > 10000 | > 10000 | > 10000 | > 10000 | > 10000 | > 10000 | > 10000 | > 10000
Cc1nc2c(F)cc(-c3ccc4c(=O)n(C5CCNCC5)cnc4c3)cc2s1 [Compound 285] | > 10000 | 1000 to 10000 | 1000 to 10000 | 100 to 1000 | 1000 to 10000 | 100 to 1000 | > 10000 | 100 to 1000
Cc1cn2cc(-c3ccc4c(=O)n(C5CCNCC5)cnc4c3)nc2c(C)n1 [Compound 286] | 1000 to 10000 | 1000 to 10000 | 1000 to 10000 | 1000 to 10000 | 1000 to 10000 | 1000 to 10000 | 1000 to 10000 | 100 to 1000
Cc1cn2nc(-c3ccc4c(=O)n(C5CCNCC5)cnc4c3)nc2c(C)n1 [Compound 287, 7-{6,8-dimethyl-[1,2,4]triazolo[1,5-a]pyrazin-2-yl}-3-(piperidin-4-yl)quinazolin-4-one] | 100 to 1000 | 100 to 1000 | 100 to 1000 | 100 to 1000 | 100 to 1000 | 100 to 1000 | 100 to 1000 | 100 to 1000
Cc1cn2nc(-c3ccc4c(=O)n(C5CCN(C)CC5)cnc4c3)nc2c(C)n1 [Compound 288, 7-{6,8-dimethyl-[1,2,4]triazolo[1,5-a]pyrazin-2-yl}1-3-(1-methylpiperidin-4-yl)quinazolin-4-one] | 1000 to 10000 | 1000 to 10000 | 1000 to 10000 | 1000 to 10000 | 1000 to 10000 | 1000 to 10000 | 1000 to 10000 | 1000 to 10000
Cc1cn2cc(-c3ccc4c(=O)n(C5CCNCC5)cnc4c3)cc(Cl)c2n1 [Compound 291] | 100 to 1000 | 100 to 1000 | 100 to 1000 | 100 to 1000 | < 100 | 100 to 1000 | 100 to 1000 | < 100
Cc1cn2cc(-c3ccc4c(=O)n(C5CCNCC5)cnc4c3)cc(C)c2n1 [Compound 292] | 100 to 1000 | 100 to 1000 | 100 to 1000 | 100 to 1000 | 100 to 1000 | 100 to 1000 | 1000 to 10000 | 100 to 1000
Cc1cn2cc(-c3ccc4c(=O)n([C@@H]5CCN[C@@H](C)C5)cnc4c3)cc(F)c2n1 [Compound 293] | 1000 to 10000 | 100 to 1000 | 100 to 1000 | 100 to 1000 | 100 to 1000 | 100 to 1000 | 1000 to 10000 | 100 to 1000
Cc1cn2cc(-c3ccc4c(=O)n(C5CCN[C@@H](C)C5)cnc4c3)cc(F)c2n1 (stereo partly drawn) [Compound 294] | 1000 to 10000 | 1000 to 10000 | 1000 to 10000 | 100 to 1000 | 100 to 1000 | 100 to 1000 | 1000 to 10000 | 100 to 1000
Cc1cn2cc(-c3ccc4c(=O)n([C@@H]5CCN[C@H](C)C5)cnc4c3)cc(F)c2n1 [Compound 295] | 1000 to 10000 | 1000 to 10000 | 1000 to 10000 | 100 to 1000 | 100 to 1000 | 100 to 1000 | > 10000 | 100 to 1000
Cc1cn2cc(-c3ccc4c(=O)n([C@H]5CCN[C@H](C)C5)cnc4c3)cc(F)c2n1 [Compound 296] | 100 to 1000 | 100 to 1000 | 100 to 1000 | < 100 | < 100 | < 100 | 100 to 1000 | 100 to 1000
Cc1cn2cc(-c3ccc4c(=O)n(C5CCNCC5)cnc4c3)ncc2n1 [Compound 297] | 1000 to 10000 | 1000 to 10000 | 1000 to 10000 | 100 to 1000 | 100 to 1000 | 100 to 1000 | 1000 to 10000 | 1000 to 10000
Cc1cn2nc(-c3ccc4c(=O)n(C5CCNCC5)cnc4c3)cc2c(C)n1 [Compound 298] | 100 to 1000 | 100 to 1000 | 100 to 1000 | 100 to 1000 | 100 to 1000 | 100 to 1000 | 1000 to 10000 | 1000 to 10000
CN1CCC(n2cnc3cc(-c4cn[nH]c4)ccc3c2=O)CC1 [Compound 299] | > 10000 | > 10000 | > 10000 | > 10000 | > 10000 | > 10000 | > 10000 | > 10000
Cc1nc2c(F)cc(-c3ccc4c(=O)n(C5CCN(C)CC5)cnc4c3)cc2o1 [Compound 300] | 1000 to 10000 | 100 to 1000 | 100 to 1000 | 1000 to 10000 | 100 to 1000 | 1000 to 10000 | 1000 to 10000 | 1000 to 10000
Cc1nc2c(F)cc(-c3ccc4c(=O)n(C5CCN(C)CC5)cnc4c3)cc2s1 [Compound 301] | 1000 to 10000 | 1000 to 10000 | 1000 to 10000 | 1000 to 10000 | 1000 to 10000 | 1000 to 10000 | 1000 to 10000 | 1000 to 10000
